Results taken from patent US11590117B2, “Treatment of a hematologic malignancy with 2-(4-chlorophenyl)-n-((2-(2,6-dioxopiperidin-3-yl)-1-oxoisoindolin-5-yl)methyl)-2,2-difluoroacetamide” (priority 2016, dated 2023).
“And” between values parts separate entries of the source, which are not always exact repeats. Identical values can stand only once. Like-named read-outs stand apart in the source and are kept apart here.

Key:
[1] = test system: normal lymphocytes of AML bone marrow samples; assay: Ex vivo flow cytometry (ExviTech) assay in AML donor bone marrow samples; format: cell-based, human
Protocol: (§1) Patient Samples: The study included bone marrow (BM) samples from adult patients over 18 years of age who were diagnosed with AML. Samples were analyzed in two different batches with the first batch containing 10 patients (donors assigned identification codes containing CG1) and the second comprising the remaining 20 donors (assigned identification codes containing CG3). Corresponding clinical data was not available for the second batch of 20 patient samples at the time of writing.
(§2) Experimental Study Design: To evaluate and characterize the ex vivo pharmacology of Compound 1 in malignant cells and normal lymphocytes of bone marrow samples from thirty donors with acute myeloid leukemia using a flow cytometry-based platform (ExviTech) (Bennett, et al Clin Lymphoma Myeloma Leuk 2014 August; 14(4):305-318).
(§3) On Day 1, the donor sample was received. A small part was separated for validation, and the majority was diluted with culture medium (Roswell Park Memorial Institute (RPMI) 1640) and plated into 96-well plates previously prepared with a range of Compound 1 concentrations. The number of live leukemic cells seeded in each well was fixed between 8000 and 32,000, depending on the percentage of leukemic cells for each sample. The plates were incubated for 24, 48, or 96 hours. Antibodies anti-D34, anti-CD117, anti-HLA-DR, anti-CD45, anti-CD14, anti-CD64, anti-CD13, anti-CD11b) or Annexin V were added to identify leukemic cells using a gating strategy based on forward scatter (FSC) or side scatter (SSC) and expression or lack of expression of different surface markers. The monoclonal antibody selection was performed to optimize the identification of leukemic cells in each sample. The aim of this analysis was not the phenotypic characterization but only the identification of these cells. Accordingly, the markers that Euroflow (van Dongen et al, Leukemia 2012 September; 26(9):1908-1975) has designated as the “backbone markers” for AML (CD34, CD45, CD117) and human leukocyte antigen-DR (HLA-DR) were included in the combination. They allowed the identification of the leukemic cells in almost 90% of AML patients. Additional panels, CD34/CD14/CD64/CD45 and CD34/CD11b/CD13/CD45, were also used to complete the identification of the myeloid leukemic population. This allowed for the selection of the two best antibodies for unequivocal identification of the pathological cell population in each particular sample.
(§4) Live leukemic cells were identified by their light scattering properties classified as high, intermediate, or low (eg, FSC^int/hi/SSC^int) in the absence of Annexin V fluorescein isothiocyanate (FITC) staining. Forward scatter/side scatter selection was performed to exclude debris. The average percentage of cell viability on receipt of the sample was greater than 50% (samples were only processed if the viability was greater than 50%). In some AML donor samples, sufficient normal, non-tumoral lymphocyte cells could be counted, and the effect of Compound 1 was measured in this cell population. Non-tumoral lymphocytes were identified by bright expression of CD45, FSC^low/SSC^low and absence of myeloid markers (CD117, CD11b, and CD13).
(§5) Detailed descriptions of methods used have been published previously (Bennett, et al Clin Lymphoma Myeloma Leuk 2014 August; 14(4):305-318). Briefly, BM samples were extracted under sterile conditions in hospitals of origin and were received within 24 hours of extraction. Initial analysis evaluated the number of pathological cells and their viability. Different volumes of sample (1 μL, 3 μL, 5 μL, and 7 μL) were transferred in duplicate into a 96-well plate. To lyse red blood cells, 180 μL of ammonium chloride lysis solution (2 g KHCO3, 16.58 g NH4Cl, 0.074 g disodium ethylenediaminetetraacetic acid ⋅2H2O, and H2O adjusted to […]) was added to each well. Following a 10-minute incubation period at 4° C., each plate was centrifuged for 5 minutes at 1200 rpm, and the supernatant removed. […]

[2] = test system: leukemic cells of AML bone marrow samples; assay: as above; format: cell-based, human; settings: for Emax: 100% minus YMin; for depletion of leukemic cells, on average: sensitive patient samples
Protocol: as §1, §2, §3, §4, §5

Namalwa = assay: CellTiter-Glo (CTG) cell proliferation assay, 72 hours; format: cell-based; settings: Homo sapiens, Burkitt Lymphoma
Protocol: (§6) Preparation of Solutions of Test Article: Compounds were plated into black 384-well plates (Corning Inc.) to a final DMSO volume of 0.1% assuming a maximal volume of 50 μL. A 10-point dose response starting at 10 μM with a 1:3 dilution was printed in duplicate by acoustic dispense using the EDC ATS-100 platform.
(§7) Cell Proliferation Assays: The effect of Compound 1 on the proliferation/viability of the hematological cell lines (Table 1 Table, Table 2 and Table 3), THLE-2, or PBMCs was assessed after 72 hours incubation using CTG (Promega), according to manufacturer's instructions. Hematological cell lines were dispensed into compound plates by a Multidrop™ Combi Reagent Dispenser (Thermo Scientific, Waltham, Mass.) at a concentration of 0.1 to 0.3×10^6 cells per mL in a 50 μL total volume. THLE-2 cells were seeded out at 1000 cells per well in 50 μL volume and incubated for 72 hours. At 72 hours, 25 μL per well of CTG was dispensed by a Multidrop™ Combi Reagent Dispenser and adenosine triphosphate (ATP) release by viable cells was measured as relative luminescence units after 30 minutes using the Envision platform.

Karpas 231 = assay: as above; format: cell-based; settings: Homo sapiens, Acute Lymphoblastic Leukemia
Protocol: as §6, §7

In the case of `O=C1CCC(N2Cc3cc(CNC(=O)C(F)(F)c4ccc(Cl)cc4)ccc3C2=O)C(=O)N1` (centres unmarked) [Compound 1, 2-(4-chlorophenyl)-N-((2-(2,6-dioxopiperidin-3-yl)-1-oxoisoindolin-5-yl)methyl)-2,2-difluoroacetamide], the Emax ([1]; Homo sapiens, Lymphocyte, normal lymphocytes in patient samples where sufficient could be counted, from 24 to 96 hours, read-out: Emax, averaged) is reported as 46 to 76%, the Emax ([1]; Lymphoid (LIVE) cells, 48 hours incubation, per AML donor sample, 100% minus YMin) is reported as 69.4% and the EC50 ([1]; Lymphoid (LIVE) cells, 48 hours incubation, per AML donor sample, unit inferred) is reported as 43 nM. The “patient samples sensitive to Compound 1” value ([2]; 30 fresh AML bone marrow samples) was 26 out of 30, the Emax ([2]; Homo sapiens, 96 h, Leukemic (LIVE) cells, 96 hours incubation, per AML donor sample, read-out: Emax) was 98% and the EC50 ([2]; Homo sapiens, 96 h, sensitive AML patient samples (26 out of 30), across all three time points (24, 48, 96 hours), read-out: EC50 (range)) was 2 to 160 nM. The EC50 ([2]; Homo sapiens, 96 h, sensitive AML patient samples (26 out of 30), across all three time points (24, 48, 96 hours), read-out: mean EC50) was 21 nM, the Emax ([2]; Leukemic (LIVE) cells, 24 hours incubation, per AML donor sample) was 64.3% and 83.1% and the EC50 ([2]; Leukemic (LIVE) cells, 24 hours incubation, per AML donor sample, unit not printed in table (2 to 160 nM), read-out: EC50) was 13 nM. The Emax ([2]; Leukemic (LIVE) cells, 48 hours incubation, per AML donor sample) was 99.8%, the Emax ([2]; Leukemic (LIVE) cells, 96 hours incubation, per AML donor sample) was 100.0% and 99.9% and 99.6% and the EC50 ([2]; Leukemic (LIVE) cells, 96 hours incubation, per AML donor sample, unit not printed in table (2 to 160 nM), read-out: EC50) was 5 nM. For the same compound, the “depletion of leukemic blasts” value ([2]; four patient samples categorized as insensitive, at 24 and 48 hours) was at most 68%, the “depletion of leukemic cells, on average” value ([2]; by 48 hours) was over 92% and the “depletion of leukemic cells, on average” value ([2]; by 96 hours) was over 98%. The IC50 (Namalwa) was 74.6 nM and the IC50 (Karpas 231) was 790 nM.
